Measured values from patent US20250188032A1, “NITROGEN-CONTAINING HETEROCYCLIC COMPOUNDS AND USES THEREOF” (BNH RESEARCH CO., LTD., priority 2022, published 2025).

System: 293T cells
Assay: Cytotoxicity test (CCK-8 cell viability) in 293T cells
Format: cell-based, human
Details: 24 hours co-incubation, 293T cell line, % of control
Protocol: Human undifferentiated neuroblastoma cell line SH-SY5Y and human embryonic kidney cell line (HEK)-293T were purchased from Korean Cell Line Bank (Korea) and Takara (Japan), respectively. Cells were grown in HyClone Minimal Essential Medium (MEM) and Dulbecco's Modified Eagle Medium (DMEM), respectively, supplemented with 10% (v/v) fetal bovine serum (FBS), penicillin (100 U/mL), and streptomycin ([…]). Cells were maintained in a humidified atmosphere of 95% air and 5% CO2 at 37° C. Cells were passaged 10 times at maximum. Cells were dissociated using 0.05% trypsin-EDTA solution and the cells were seeded in new culture dishes for maintenance.
To examine the cytotoxicity of compounds described herein in human cell lines, SH-SY5Y and 293T cells were used. Approximately 8,000 cells (for 293T) and 15,000 cells (for SH-SY5Y) were plated per well of a 96-well plate (SPL Life Sciences Co., Ltd., Pocheon, Korea). After incubating at 37° C. for 24 hours in a humidified atmosphere containing 5% CO2, the culture medium was replaced by a series of concentrations of test compounds diluted in the corresponding culture medium. The time of co-incubation was 24 hours and six replicates were made for each measurement. Finally, 10 μL of CCK-8 reagent (Dojindo Laboratories, Rockville, MD) was added to each well, and after incubation at 37° C. for 3 minutes, the OD at 450 nm was measured using a multifunction microplate reader (Tecan Infinite M200 Pro). These measurements were compared to that of a control and expressed as a percentage of the control to calculate cell viability. The IC50 value was calculated using SPSS software. To do this, the absorbance of the blank wells with only growth medium is subtracted from the values or the wells with cells. The readout value of background (vehicle) was set as a 100% viability, and then the percent viability for each test solution was calculated.
Cell viability (%)=[(As-Ab)/(Ac-Ab)]×100
The data was presented as the mean value and standard error of the mean (S.E.M.). Statistical analysis was performed with the one-way ANOVA with Tukey's post hoc test (GraphPad Prism 5 software package, version 5.02, GraphPad Software Inc. USA). Significance was accepted at p<0.05.

O=C(O)[C@@H]1CCCN(C(=O)Cc2ccc(F)cc2Cl)C1 [BnH12004, (R)-1-(2-(2-chloro-4-fluorophenyl)acetyl)piperidine-3-carboxylic acid]
Cell viability test results (CCK) 10 uM: 95%<
Cell viability test results (CCK) 100 uM: 85%<

CCC(=O)N1C[C@H](C(=O)O)CC[C@@H]1C [BnH12008, (3R,6S)-6-methyl-1-propionylpiperidine-3-carboxylic acid]
Cell viability test results (CCK) 10 uM: 95%<
Cell viability test results (CCK) 100 uM: 90%<

C[C@H]1CC[C@@H](C(=O)O)CN1C(=O)c1ccc(F)cc1Cl [BnH12011, (3R,6S)-1-(2-chloro-4-fluorobenzoyl)-6-methylpiperidine-3-carboxylic acid]
Cell viability test results (CCK) 10 uM: 95%<
Cell viability test results (CCK) 100 uM: 95%<

O=C(O)[C@H]1CCCN1C(=O)Cc1ccc(F)cc1Cl [BnH12012, (2-(2-chloro-4-fluorophenyl)acetyl)-D-proline]
Cell viability test results (CCK) 10 uM: 95%<
Cell viability test results (CCK) 100 uM: 90%<

O=C(O)[C@@H]1CCCN1C(=O)Cc1ccc(F)cc1Cl [BnH12013, (2-(2-chloro-4-fluorophenyl)acetyl)-L-proline]
Cell viability test results (CCK) 10 uM: 99%<
Cell viability test results (CCK) 100 uM: 99%<

O=C(NO)[C@H]1CCCN1C(=O)Cc1ccc(F)cc1Cl [BnH12014, (R)-1-(2-(2-chloro-4-fluorophenyl)acetyl)-N-hydroxypyrrolidine-2-carboxamide]
Cell viability test results (CCK) 10 uM: 99%<
Cell viability test results (CCK) 100 uM: 90%<

O=C(NO)[C@@H]1CCCN1C(=O)c1ccccc1 [BnH12019, (S)-1-Benzoyl-N-hydroxypyrrolidine-2-carboxamide]
Cell viability test results (CCK) 10 uM: 99%<
Cell viability test results (CCK) 100 uM: 90%<

COC(=O)[C@@H]1CC[C@H](C)N(C(=O)Cc2ccc(F)cc2Cl)C1 [BnH12020, Methyl (3R,6S)-1-(2-(2-chloro-4-fluorophenyl)acetyl)-6-methylpiperidine-3-carboxylate]
Cell viability test results (CCK) 10 uM: 95%<
Cell viability test results (CCK) 100 uM: 95%<

CCOC(=O)[C@@H]1CC[C@H](C)N(C(=O)Cc2ccc(F)cc2Cl)C1 [BnH12021, Ethyl (3R,6S)-1-(2-(2-chloro-4-fluorophenyl)acetyl)-6-methylpiperidine-3-carboxylate]
Cell viability test results (CCK) 10 uM: 90%<
Cell viability test results (CCK) 100 uM: 80%<

C[C@H]1CC[C@@H](C(N)=O)CN1C(=O)Cc1ccc(F)cc1Cl [BnH12022, (3R,6S)-1-(2-(2-chloro-4-fluorophenyl)acetyl)-6-methylpiperidine-3-carboxamide]
Cell viability test results (CCK) 10 uM: 99%<
Cell viability test results (CCK) 100 uM: 99%<

C[C@H]1CC[C@@H](C(=O)O)CN1C(=O)Cc1ccc(Cl)cc1 [BnH12023, (3R,6S)-1-(2-(4-chlorophenyl)acetyl)-6-methylpiperidine-3-carboxylic acid]
Cell viability test results (CCK) 10 uM: 95%<
Cell viability test results (CCK) 100 uM: 80%<

Cc1ccc(CC(=O)N2C[C@H](C(=O)O)CC[C@@H]2C)cc1 [BnH12024, (3R,6S)-6-methyl-1-(2-(p-tolyl)acetyl)piperidine-3-carboxylic acid]
Cell viability test results (CCK) 10 uM: 99%<
Cell viability test results (CCK) 100 uM: 99%<

C[C@H]1CC[C@@H](C(=O)O)CN1C(=O)Cc1cccc(Cl)c1 [BnH12026, (3R,6S)-1-(2-(3-chlorophenyl)acetyl)-6-methylpiperidine-3-carboxylic acid]
Cell viability test results (CCK) 10 uM: 99%<
Cell viability test results (CCK) 100 uM: 99%<

C[C@H]1CC[C@@H](C(=O)O)CN1C(=O)Cc1ccc(Cl)c(Cl)c1 [BnH12028, (3R,6S)-1-(2-(3,4-dichlorophenyl)acetyl)-6-methylpiperidine-3-carboxylic acid]
Cell viability test results (CCK) 10 uM: 90%<
Cell viability test results (CCK) 100 uM: 80%<

C[C@H]1CC[C@@H](C(=O)O)CN1C(=O)Cc1ccc(C(C)(C)C)cc1 [BnH12029, (3R,6S)-1-(2-(4-(tert-butyl)phenyl)acetyl)-6-methylpiperidine-3-carboxylic acid]
Cell viability test results (CCK) 10 uM: 99%<
Cell viability test results (CCK) 100 uM: 80%<

Cc1cccc(CC(=O)N2C[C@H](C(=O)O)CC[C@@H]2C)c1 [BnH12030, (3R,6S)-6-methyl-1-(2-(m-tolyl)acetyl)piperidine-3-carboxylic acid]
Cell viability test results (CCK) 10 uM: 95%<
Cell viability test results (CCK) 100 uM: 85%<

C[C@H]1CC[C@@H](C(=O)O)CN1C(=O)Cc1ccc(F)cc1 [BnH12031, (3R,6S)-1-(2-(4-fluorophenyl)acetyl)-6-methylpiperidine-3-carboxylic acid]
Cell viability test results (CCK) 10 uM: 90%<
Cell viability test results (CCK) 100 uM: 75%<

C[C@H]1CC[C@@H](C(=O)O)CN1C(=O)Cc1ccc(Br)cc1 [BnH12032, (3R,6S)-1-(2-(4-bromophenyl)acetyl)-6-methylpiperidine-3-carboxylic acid]
Cell viability test results (CCK) 10 uM: 99%<
Cell viability test results (CCK) 100 uM: 95%<

C[C@H]1CC[C@@H](C(=O)[O-])CN1C(=O)Cc1ccncc1.[Na+] [BnH12033, Sodium (3R,6S)-6-methyl-1-(2-(pyridin-4-yl)acetyl)piperidine-3-carboxylate]
Cell viability test results (CCK) 10 uM: 90%<
Cell viability test results (CCK) 100 uM: 65%<

C[C@H]1CC[C@@H](C(=O)O)CN1C(=O)Cc1cccs1 [BnH12034, (3R,6S)-6-methyl-1-(2-(thiophen-2-yl)acetyl)piperidine-3-carboxylic acid]
Cell viability test results (CCK) 10 uM: 90%<
Cell viability test results (CCK) 100 uM: 85%<

C[C@H]1CC[C@@H](C(=O)O)CN1C(=O)Cc1ccco1 [BnH12035, (3R,6S)-1-(2-(furan-2-yl)acetyl)-6-methylpiperidine-3-carboxylic acid]
Cell viability test results (CCK) 10 uM: 90%<
Cell viability test results (CCK) 100 uM: 85%<

C[C@H]1CC[C@@H](C(=O)O)CN1C(=O)Cc1cncnc1 [BnH12040, (3R,6S)-6-methyl-1-(2-(pyrimidin-5-yl)acetyl)piperidine-3-carboxylic acid]
Cell viability test results (CCK) 10 uM: 85%<
Cell viability test results (CCK) 100 uM: 80%<

C[C@H]1CC[C@@H](C(=O)O)CN1C(=O)Cc1ncccn1 [BnH12041, (3R,6S)-6-methyl-1-(2-(pyrimidin-2-yl)acetyl)piperidine-3-carboxylic acid]
Cell viability test results (CCK) 10 uM: 90%<
Cell viability test results (CCK) 100 uM: 70%<

C[C@@H]1CC[C@H](C(=O)O)CN1C(=O)Cc1ccccc1 [BnH12062, (3S,6R)-6-methyl-1-(2-phenylacetyl)piperidine-3-carboxylic acid]
Cell viability test results (CCK) 10 uM: 85%<
Cell viability test results (CCK) 100 uM: 75%<

COc1ccc(CC(=O)N2C[C@H](C(=O)O)CC[C@@H]2C)cn1 [BnH12075, (3R,6S)-1-(2-(6-methoxypyridin-3-yl)acetyl)-6-methylpiperidine-3-carboxylic acid]
Cell viability test results (CCK) 10 uM: 99%<
Cell viability test results (CCK) 100 uM: 99%<

C[C@H]1CC[C@@H](C(=O)O)CN1C(=O)Cc1ccc(N(C)C)cc1 [BnH12076, (3R,6S)-1-(2-(4-(dimethylamino)phenyl)acetyl)-6-methylpiperidine-3-carboxylic acid]
Cell viability test results (CCK) 10 uM: 95%<
Cell viability test results (CCK) 100 uM: 95%<

CCC1CCC(C(=O)O)CN1C(=O)Cc1ccc(F)cc1Cl (stereo not drawn) [BnH12094, 1-(2-(2-chloro-4-fluorophenyl)acetyl)-6-ethylpiperidine-3-carboxylic acid]
Cell viability test results (CCK) 10 uM: 80%<
Cell viability test results (CCK) 100 uM: 70%<
